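Assay format: 96-well plates, 48-hour exposure. At the GI50, growth is halved.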 Calls of active or inactive are those of the source. Rule as the data show it: active = GI50 up to about 1.1 µM and inactive = higher.
Assays:
Assay in all cases: NCI-60 cell line screen, 48 h
[1] = test system: CAKI-1
[2] = test system: CCRF-CEM
[3] = test system: EKVX
[4] = test system: HCT-15
[5] = test system: HL-60
[6] = test system: KM12
[7] = test system: NCI-H522
[8] = test system: OVCAR-4
[9] = test system: RXF 393
[10] = test system: SNB-75
[11] = test system: SR
[12] = test system: UACC-257
[13] = test system: UACC-62
[14] = test system: UO-31
[15] = test system: LOX IMVI

Row | SMILES | GI50 [1] | GI50 [2] | GI50 [3] | GI50 [4] [µM] | GI50 [5] | GI50 [6] | GI50 [7] | GI50 [8] | GI50 [9] | GI50 [10] | GI50 [11] | GI50 [12] | GI50 [13] | GI50 [14] | GI50 [15]
1 | CC#CC1/C(=C\C(=O)OC)CCCC1O (stereo not given) | > 100 µM (inactive) | > 100 µM (inactive) | > 100 µM (inactive) | > 100 | > 100 µM (inactive) | > 100 µM (inactive) | > 100 µM (inactive) | > 100 µM (inactive) | > 100 µM (inactive) | > 100 µM (inactive) | > 100 µM (inactive) | > 100 µM (inactive) | > 100 µM (inactive) | > 100 µM (inactive) | –
2 | COC(=O)C(C(=O)C(=O)Nc1ccccc1C)c1nc2ccc([N+](=O)[O-])cc2nc1O (stereo not given) | > 100 µM (inactive) | > 100 µM (inactive) | > 100 µM (inactive) | > 100 | > 100 µM (inactive) | > 100 µM (inactive) | 47.3 µM (inactive) | > 100 µM (inactive) | > 100 µM (inactive) | > 100 µM (inactive) | > 100 µM (inactive) | > 100 µM (inactive) | > 100 µM (inactive) | > 100 µM (inactive) | > 100 µM (inactive)
3 | CC1(C)OC(C[C@]2(C#N)C[C@H](CCl)OC(C)(C)O2)C[C@@H](C[C@]2(C#N)C[C@H](CCl)OC(C)(C)O2)O1 (stereo not given in full) | > 100 µM (inactive) | > 100 µM (inactive) | > 100 µM (inactive) | > 100 | > 100 µM (inactive) | > 100 µM (inactive) | > 100 µM (inactive) | > 100 µM (inactive) | – | > 100 µM (inactive) | 20 µM (inactive) | 17.3 µM (inactive) | > 100 µM (inactive) | – | > 100 µM (inactive)
4 | O=c1/c(=C/c2ccco2)sc2nc3ccccc3n12 | > 10 µM (inactive) | > 10 µM (inactive) | 59.2 µM (inactive) | > 10 | > 10 µM (inactive) | > 100 µM (inactive) | > 10 µM (inactive) | > 10 µM (inactive) | 63.5 µM (inactive) | 27 µM (inactive) | > 10 µM (inactive) | > 10 µM (inactive) | > 10 µM (inactive) | > 10 µM (inactive) | > 10 µM (inactive)
5 | CSc1ccc2c(cc1=O)[C@@H](NC(=O)c1cc(O)c(O)c(O)c1)CCc1cc(O)c(O)c(O)c1-2 | – | 3.33 µM (inactive) | 23.2 µM (inactive) | 20.2 | 16.8 µM (inactive) | 20.9 µM (inactive) | 21.4 µM (inactive) | 8.93 µM (inactive) | – | 23.4 µM (inactive) | 18.6 µM (inactive) | 18 µM (inactive) | 19.2 µM (inactive) | 25.9 µM (inactive) | –
6 | O=C1C(Cl)=C(Cl)C(=O)N1c1ccc(Cl)c(Cl)c1Cl | 25.5 µM (inactive) | 21.7 µM (inactive) | 61.5 µM (inactive) | 31.1 | 24.3 µM (inactive) | > 100 µM (inactive) | 14.4 µM (inactive) | 28.4 µM (inactive) | – | > 100 µM (inactive) | 26.9 µM (inactive) | > 100 µM (inactive) | 30.5 µM (inactive) | > 100 µM (inactive) | 69 µM (inactive)
7 | NC(=O)COc1ccc(Br)cc1Br | > 100 µM (inactive) | – | 29.2 µM (inactive) | > 100 | > 100 µM (inactive) | 85.3 µM (inactive) | > 100 µM (inactive) | – | – | 52.1 µM (inactive) | > 100 µM (inactive) | > 100 µM (inactive) | – | > 100 µM (inactive) | –
8 | N#CC1CCCCC1NC1(C#N)CCCCC1 (stereo not given) | > 100 µM (inactive) | > 100 µM (inactive) | > 100 µM (inactive) | > 100 | > 100 µM (inactive) | > 100 µM (inactive) | > 100 µM (inactive) | – | > 100 µM (inactive) | > 100 µM (inactive) | – | > 100 µM (inactive) | > 100 µM (inactive) | > 100 µM (inactive) | > 100 µM (inactive)
9 | CC(=O)OC[C@@H](COC(=O)/C=C/c1ccc(O)cc1)OC1OC(CO)C(O)C(O)C1O (stereo not given in full) | > 100 µM (inactive) | > 100 µM (inactive) | > 100 µM (inactive) | > 100 | > 100 µM (inactive) | > 100 µM (inactive) | > 100 µM (inactive) | > 100 µM (inactive) | > 100 µM (inactive) | > 100 µM (inactive) | > 100 µM (inactive) | > 100 µM (inactive) | > 100 µM (inactive) | > 100 µM (inactive) | > 100 µM (inactive)
10 | O=C1OCCC1C(O)C1c2ccccc2-c2ccccc21 (stereo not given) | > 100 µM (inactive) | > 100 µM (inactive) | > 100 µM (inactive) | – | > 100 µM (inactive) | > 100 µM (inactive) | > 100 µM (inactive) | > 100 µM (inactive) | – | > 100 µM (inactive) | > 100 µM (inactive) | > 100 µM (inactive) | > 100 µM (inactive) | > 100 µM (inactive) | –
11 | C/C=C1\CN2CCc3c([nH]c4ccccc34)C2CC1C(=O)OC (stereo not given) | > 322 µM (inactive) | > 322 µM (inactive) | > 322 µM (inactive) | > 322 | > 32.2 µM (inactive) | > 322 µM (inactive) | 287 µM (inactive) | – | > 322 µM (inactive) | – | > 322 µM (inactive) | > 322 µM (inactive) | > 322 µM (inactive) | – | > 322 µM (inactive)
12 | S=c1c2ccccc2c(=S)n2n1CC=CC2 | > 100 µM (inactive) | > 100 µM (inactive) | > 100 µM (inactive) | > 100 | > 100 µM (inactive) | > 100 µM (inactive) | 75.7 µM (inactive) | > 100 µM (inactive) | > 100 µM (inactive) | 68.1 µM (inactive) | – | > 100 µM (inactive) | > 100 µM (inactive) | > 100 µM (inactive) | > 100 µM (inactive)
13 | CC(=O)NC(CCCNC(=O)OCc1ccccc1)C(=O)NCc1ccccc1 (stereo not given) | > 100 µM (inactive) | > 100 µM (inactive) | > 100 µM (inactive) | > 100 | – | > 100 µM (inactive) | > 100 µM (inactive) | > 100 µM (inactive) | > 100 µM (inactive) | 41.8 µM (inactive) | – | > 100 µM (inactive) | > 100 µM (inactive) | > 100 µM (inactive) | > 100 µM (inactive)
14 | O=C(O)C12C3C4C1C1C2C3C41I (stereo not given) | > 100 µM (inactive) | > 100 µM (inactive) | > 100 µM (inactive) | > 100 | > 100 µM (inactive) | > 100 µM (inactive) | > 100 µM (inactive) | > 100 µM (inactive) | – | 70.6 µM (inactive) | – | > 100 µM (inactive) | > 100 µM (inactive) | > 100 µM (inactive) | > 100 µM (inactive)
15 | CCCCCCc1cc2c(C)c(C)c(=O)oc2cc1OCCCOc1cc2oc(=O)c(C)c(C)c2cc1CCCCCC | > 100 µM (inactive) | > 100 µM (inactive) | > 100 µM (inactive) | > 100 | > 100 µM (inactive) | > 100 µM (inactive) | > 100 µM (inactive) | – | 43.4 µM (inactive) | – | > 100 µM (inactive) | > 100 µM (inactive) | > 100 µM (inactive) | > 100 µM (inactive) | > 100 µM (inactive)
16 | CCOC(=O)C(C)(C)Oc1ccc2c(C)c(-c3ccc(Cl)cc3)c(=O)oc2c1 | – | 14.5 µM (inactive) | 70.3 µM (inactive) | 34.3 | 18.2 µM (inactive) | – | – | > 100 µM (inactive) | > 100 µM (inactive) | 35.8 µM (inactive) | 27.7 µM (inactive) | 43.8 µM (inactive) | 32.5 µM (inactive) | 55.5 µM (inactive) | 34.9 µM (inactive)
17 | Cc1cc(=O)oc2c1cc(OCC(=O)OCCN1CCCCC1)c1occ(C)c12 | > 100 µM (inactive) | > 100 µM (inactive) | > 100 µM (inactive) | > 100 | > 100 µM (inactive) | > 100 µM (inactive) | – | > 100 µM (inactive) | > 100 µM (inactive) | > 100 µM (inactive) | – | > 100 µM (inactive) | > 100 µM (inactive) | > 100 µM (inactive) | > 100 µM (inactive)
18 | Cc1ccc2nc3c(C(=O)NCCN(C)C)cccc3nc2c1 | – | – | 5.65 µM (inactive) | 2.9 | 5.45 µM (inactive) | 3.94 µM (inactive) | 8.81 µM (inactive) | 4.69 µM (inactive) | 3.56 µM (inactive) | 5.48 µM (inactive) | 1.01 µM (active) | 3.8 µM (inactive) | 4.35 µM (inactive) | – | 1.82 µM (inactive)
19 | CC1(C)CCC(=O)c2c(O)ccc(O)c21 | 71.8 µM (inactive) | – | > 100 µM (inactive) | 83.9 | – | 83.9 µM (inactive) | 55.8 µM (inactive) | > 100 µM (inactive) | 18.4 µM (inactive) | 23.1 µM (inactive) | > 10 µM (inactive) | 25.1 µM (inactive) | 66.8 µM (inactive) | > 100 µM (inactive) | –
20 | CNC(=O)N(CCCC(NC(C)=O)C(=O)NCc1ccccc1)Cc1ccccc1 (stereo not given) | > 100 µM (inactive) | > 100 µM (inactive) | > 100 µM (inactive) | > 100 | – | > 100 µM (inactive) | > 100 µM (inactive) | > 100 µM (inactive) | > 100 µM (inactive) | 28.6 µM (inactive) | – | > 100 µM (inactive) | > 100 µM (inactive) | > 100 µM (inactive) | > 100 µM (inactive)
21 | CCC1(OC(C)=O)C(=O)OCc2c1cc1n(c2=O)Cc2cc3ccccc3nc2-1 (stereo not given) | 1.07 µM (active) | 0.163 µM (active) | 12.8 µM (inactive) | 12.3 | 0.421 µM (active) | 7.6 µM (inactive) | 1.19 µM (inactive) | 41.4 µM (inactive) | 2.64 µM (inactive) | 1.48 µM (inactive) | 0.276 µM (active) | 4.45 µM (inactive) | 0.251 µM (active) | 1 µM (active) | 1.01 µM (active)
